Results taken from paper PMC6199744, “Development of Chemical Proteomics for the Folateome and Analysis of the Kinetoplastid Folateome” (ACS Infectious Diseases, 2018).

Assays:
Assay type in all cases: binding
[1] = target: T1, HeLa cell extract proteins (Homo sapiens, UniProt Q6ZN16); conditions: HeLa; protein MAP3K15
T1 construct: endogenous in cells; host or cells: HeLa cell extract
T1 sequence (Q6ZN16 1-1313): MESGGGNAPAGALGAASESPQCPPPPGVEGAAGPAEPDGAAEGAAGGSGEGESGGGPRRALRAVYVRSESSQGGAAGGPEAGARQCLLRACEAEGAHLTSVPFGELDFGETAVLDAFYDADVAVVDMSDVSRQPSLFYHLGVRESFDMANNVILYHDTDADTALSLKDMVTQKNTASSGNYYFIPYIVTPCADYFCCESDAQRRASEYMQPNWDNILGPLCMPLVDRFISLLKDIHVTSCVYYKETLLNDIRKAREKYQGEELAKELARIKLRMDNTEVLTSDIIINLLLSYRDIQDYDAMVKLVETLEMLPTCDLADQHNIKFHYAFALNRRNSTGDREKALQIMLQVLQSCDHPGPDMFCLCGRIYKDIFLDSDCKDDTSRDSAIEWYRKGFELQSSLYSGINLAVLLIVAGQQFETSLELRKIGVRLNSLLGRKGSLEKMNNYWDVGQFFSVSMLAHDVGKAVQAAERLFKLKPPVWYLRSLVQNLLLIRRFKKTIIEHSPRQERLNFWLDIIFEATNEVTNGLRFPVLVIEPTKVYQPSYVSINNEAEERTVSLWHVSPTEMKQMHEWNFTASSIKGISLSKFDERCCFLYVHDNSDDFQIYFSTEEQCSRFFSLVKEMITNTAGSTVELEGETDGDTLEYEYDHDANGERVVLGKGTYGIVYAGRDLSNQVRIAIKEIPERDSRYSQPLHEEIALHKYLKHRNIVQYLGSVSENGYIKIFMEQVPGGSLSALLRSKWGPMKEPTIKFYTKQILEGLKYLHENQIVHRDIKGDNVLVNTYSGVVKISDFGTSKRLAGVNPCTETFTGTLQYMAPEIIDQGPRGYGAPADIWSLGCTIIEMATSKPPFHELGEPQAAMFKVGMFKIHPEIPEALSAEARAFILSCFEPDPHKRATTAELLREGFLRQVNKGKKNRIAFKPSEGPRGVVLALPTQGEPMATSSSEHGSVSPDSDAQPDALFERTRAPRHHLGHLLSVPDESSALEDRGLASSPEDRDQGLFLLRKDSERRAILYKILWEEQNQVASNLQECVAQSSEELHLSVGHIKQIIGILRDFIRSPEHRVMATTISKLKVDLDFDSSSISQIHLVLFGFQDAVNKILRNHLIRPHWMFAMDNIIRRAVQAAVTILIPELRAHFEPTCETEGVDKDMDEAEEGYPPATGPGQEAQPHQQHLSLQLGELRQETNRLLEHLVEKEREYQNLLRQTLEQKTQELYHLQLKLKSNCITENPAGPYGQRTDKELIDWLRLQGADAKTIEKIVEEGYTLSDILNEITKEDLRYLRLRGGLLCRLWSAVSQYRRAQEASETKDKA

[2] = target: T2, HeLa cell extract proteins (Homo sapiens, UniProt P12270); conditions: HeLa; captured protein TPR
T2 construct: endogenous in cells; host or cells: HeLa cell extract
T2 sequence (P12270 whole entry): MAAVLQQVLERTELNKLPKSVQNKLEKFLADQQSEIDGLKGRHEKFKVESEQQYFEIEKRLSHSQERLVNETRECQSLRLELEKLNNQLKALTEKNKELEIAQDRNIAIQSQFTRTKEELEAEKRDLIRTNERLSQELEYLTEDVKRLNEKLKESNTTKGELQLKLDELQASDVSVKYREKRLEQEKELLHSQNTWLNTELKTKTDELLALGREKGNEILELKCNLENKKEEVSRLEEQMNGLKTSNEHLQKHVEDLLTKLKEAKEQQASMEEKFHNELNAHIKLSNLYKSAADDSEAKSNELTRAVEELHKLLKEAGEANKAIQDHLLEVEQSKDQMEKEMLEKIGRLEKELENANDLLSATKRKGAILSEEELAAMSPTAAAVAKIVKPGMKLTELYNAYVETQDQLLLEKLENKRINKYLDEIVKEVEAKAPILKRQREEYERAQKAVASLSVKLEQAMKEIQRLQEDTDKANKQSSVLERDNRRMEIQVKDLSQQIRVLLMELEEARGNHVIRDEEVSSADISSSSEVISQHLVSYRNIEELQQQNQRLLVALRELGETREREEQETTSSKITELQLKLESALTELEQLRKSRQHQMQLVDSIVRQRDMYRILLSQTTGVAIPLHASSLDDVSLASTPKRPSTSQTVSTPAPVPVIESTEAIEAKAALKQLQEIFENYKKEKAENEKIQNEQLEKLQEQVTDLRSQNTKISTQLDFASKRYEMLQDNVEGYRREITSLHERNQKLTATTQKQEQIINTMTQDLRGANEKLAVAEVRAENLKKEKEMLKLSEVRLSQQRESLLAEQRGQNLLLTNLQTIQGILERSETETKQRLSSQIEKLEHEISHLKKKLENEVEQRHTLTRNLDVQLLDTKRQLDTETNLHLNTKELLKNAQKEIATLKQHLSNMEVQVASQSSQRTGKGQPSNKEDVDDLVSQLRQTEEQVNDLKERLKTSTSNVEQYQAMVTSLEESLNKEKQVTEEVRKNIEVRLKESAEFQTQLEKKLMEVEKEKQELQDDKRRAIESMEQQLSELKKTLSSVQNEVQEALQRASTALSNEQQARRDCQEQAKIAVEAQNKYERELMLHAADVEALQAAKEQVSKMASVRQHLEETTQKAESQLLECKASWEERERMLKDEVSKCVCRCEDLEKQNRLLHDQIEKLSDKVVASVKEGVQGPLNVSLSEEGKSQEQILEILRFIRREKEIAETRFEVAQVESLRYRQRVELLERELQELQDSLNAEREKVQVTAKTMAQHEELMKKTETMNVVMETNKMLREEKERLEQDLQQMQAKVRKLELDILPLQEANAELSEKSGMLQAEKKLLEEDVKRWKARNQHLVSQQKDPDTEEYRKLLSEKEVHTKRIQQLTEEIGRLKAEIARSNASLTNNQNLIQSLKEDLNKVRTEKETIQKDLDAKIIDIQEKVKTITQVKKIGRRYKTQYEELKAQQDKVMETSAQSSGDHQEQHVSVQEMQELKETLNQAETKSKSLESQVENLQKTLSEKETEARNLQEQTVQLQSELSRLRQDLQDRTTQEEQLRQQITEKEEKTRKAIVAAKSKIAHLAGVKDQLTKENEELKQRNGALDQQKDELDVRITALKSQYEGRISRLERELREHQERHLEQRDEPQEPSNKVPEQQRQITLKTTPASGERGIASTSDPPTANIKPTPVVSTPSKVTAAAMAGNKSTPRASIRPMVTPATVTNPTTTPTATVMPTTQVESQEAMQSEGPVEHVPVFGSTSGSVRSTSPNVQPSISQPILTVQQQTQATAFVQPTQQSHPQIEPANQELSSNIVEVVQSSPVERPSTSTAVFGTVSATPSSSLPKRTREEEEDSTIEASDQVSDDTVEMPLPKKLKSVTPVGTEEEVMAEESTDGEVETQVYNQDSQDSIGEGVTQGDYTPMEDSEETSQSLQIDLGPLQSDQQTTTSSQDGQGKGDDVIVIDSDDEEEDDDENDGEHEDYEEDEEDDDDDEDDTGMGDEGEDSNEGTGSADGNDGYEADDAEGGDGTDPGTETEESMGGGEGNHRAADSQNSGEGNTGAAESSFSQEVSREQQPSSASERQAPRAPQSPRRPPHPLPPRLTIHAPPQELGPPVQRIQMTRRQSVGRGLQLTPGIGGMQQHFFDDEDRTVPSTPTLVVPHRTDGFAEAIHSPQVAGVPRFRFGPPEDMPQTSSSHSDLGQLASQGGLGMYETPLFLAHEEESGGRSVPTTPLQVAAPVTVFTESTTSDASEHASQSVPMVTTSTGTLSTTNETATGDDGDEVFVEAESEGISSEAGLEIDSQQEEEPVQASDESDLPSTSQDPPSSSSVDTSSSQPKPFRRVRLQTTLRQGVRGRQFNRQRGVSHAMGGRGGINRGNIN

[3] = target: T3, HeLa cell extract proteins (Homo sapiens, UniProt Q99714); conditions: HeLa; protein HSD17B10
T3 construct: endogenous in cells; host or cells: HeLa cell extract
T3 sequence (Q99714 1-261): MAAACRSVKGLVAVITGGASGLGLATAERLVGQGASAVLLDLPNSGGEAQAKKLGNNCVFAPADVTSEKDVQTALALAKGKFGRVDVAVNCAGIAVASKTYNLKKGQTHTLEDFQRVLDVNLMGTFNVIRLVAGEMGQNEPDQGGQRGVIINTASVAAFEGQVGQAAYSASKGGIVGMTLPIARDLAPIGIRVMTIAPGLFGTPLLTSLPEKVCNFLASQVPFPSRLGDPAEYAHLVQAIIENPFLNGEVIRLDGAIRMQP

[4] = target: T4, HeLa cell extract proteins (Homo sapiens, UniProt O75947); conditions: HeLa; captured protein ATP5H
T4 construct: endogenous in cells; host or cells: HeLa cell extract

[5] = target: T5, HeLa cell extract proteins (Homo sapiens, UniProt Q01105); conditions: HeLa; captured protein SET
T5 construct: endogenous in cells; host or cells: HeLa cell extract
T5 sequence (Q01105 whole entry): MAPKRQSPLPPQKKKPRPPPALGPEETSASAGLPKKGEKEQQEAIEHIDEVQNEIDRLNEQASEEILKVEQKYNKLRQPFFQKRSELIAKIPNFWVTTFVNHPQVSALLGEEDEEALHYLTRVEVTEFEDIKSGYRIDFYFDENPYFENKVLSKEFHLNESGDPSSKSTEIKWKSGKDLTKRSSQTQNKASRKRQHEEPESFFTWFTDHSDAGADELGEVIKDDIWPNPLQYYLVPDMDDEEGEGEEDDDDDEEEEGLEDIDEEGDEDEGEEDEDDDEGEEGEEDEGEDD

[6] = target: T6, HeLa cell extract proteins (Homo sapiens, UniProt P27797); conditions: HeLa; protein CALR
T6 construct: endogenous in cells; host or cells: HeLa cell extract
T6 sequence (P27797 18-417): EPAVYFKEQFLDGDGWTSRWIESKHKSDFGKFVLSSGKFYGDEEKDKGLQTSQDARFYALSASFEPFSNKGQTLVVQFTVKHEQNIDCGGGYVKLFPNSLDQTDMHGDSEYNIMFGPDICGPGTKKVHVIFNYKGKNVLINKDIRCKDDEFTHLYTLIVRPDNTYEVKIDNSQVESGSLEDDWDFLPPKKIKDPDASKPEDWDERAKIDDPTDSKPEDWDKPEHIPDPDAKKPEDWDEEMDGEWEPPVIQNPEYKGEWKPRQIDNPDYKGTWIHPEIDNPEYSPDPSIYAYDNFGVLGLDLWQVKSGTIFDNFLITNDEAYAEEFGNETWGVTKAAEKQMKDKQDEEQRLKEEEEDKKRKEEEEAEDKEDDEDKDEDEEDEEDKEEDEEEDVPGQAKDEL

[7] = target: T7, HeLa cell extract proteins (Homo sapiens, UniProt Q99613); conditions: protein EIF3C; HeLa
T7 construct: endogenous in cells; host or cells: HeLa cell extract
T7 sequence (Q99613 whole entry): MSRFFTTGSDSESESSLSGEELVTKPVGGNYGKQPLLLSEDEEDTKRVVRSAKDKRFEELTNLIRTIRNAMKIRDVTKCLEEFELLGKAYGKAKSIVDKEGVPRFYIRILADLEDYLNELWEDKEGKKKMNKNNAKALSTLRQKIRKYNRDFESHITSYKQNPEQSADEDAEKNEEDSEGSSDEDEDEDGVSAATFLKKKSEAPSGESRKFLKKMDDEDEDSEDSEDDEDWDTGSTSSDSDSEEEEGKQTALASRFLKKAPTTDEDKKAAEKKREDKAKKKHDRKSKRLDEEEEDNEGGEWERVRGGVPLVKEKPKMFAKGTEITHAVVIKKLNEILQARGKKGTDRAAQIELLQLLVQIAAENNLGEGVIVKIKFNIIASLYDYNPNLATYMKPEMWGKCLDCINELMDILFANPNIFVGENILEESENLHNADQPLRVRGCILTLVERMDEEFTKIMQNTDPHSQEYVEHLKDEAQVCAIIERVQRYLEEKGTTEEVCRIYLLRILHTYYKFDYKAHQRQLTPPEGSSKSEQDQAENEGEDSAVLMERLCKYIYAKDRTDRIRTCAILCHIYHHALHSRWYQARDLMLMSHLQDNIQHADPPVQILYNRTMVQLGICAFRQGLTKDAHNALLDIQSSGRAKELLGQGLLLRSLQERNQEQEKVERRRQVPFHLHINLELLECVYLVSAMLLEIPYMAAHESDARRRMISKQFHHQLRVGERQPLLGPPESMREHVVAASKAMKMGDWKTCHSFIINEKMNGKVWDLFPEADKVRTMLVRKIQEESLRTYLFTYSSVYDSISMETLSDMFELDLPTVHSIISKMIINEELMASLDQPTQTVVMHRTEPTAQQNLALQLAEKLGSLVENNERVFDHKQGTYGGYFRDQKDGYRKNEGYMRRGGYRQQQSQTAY

[8] = target: T8, HeLa cell extract proteins (Homo sapiens, UniProt P18669); conditions: HeLa; protein PGAM1
T8 construct: endogenous in cells; host or cells: HeLa cell extract

[9] = target: T9, HeLa cell extract proteins (Homo sapiens, UniProt P48643); conditions: HeLa; protein CCT5
T9 construct: endogenous in cells; host or cells: HeLa cell extract
T9 sequence (P48643 whole entry): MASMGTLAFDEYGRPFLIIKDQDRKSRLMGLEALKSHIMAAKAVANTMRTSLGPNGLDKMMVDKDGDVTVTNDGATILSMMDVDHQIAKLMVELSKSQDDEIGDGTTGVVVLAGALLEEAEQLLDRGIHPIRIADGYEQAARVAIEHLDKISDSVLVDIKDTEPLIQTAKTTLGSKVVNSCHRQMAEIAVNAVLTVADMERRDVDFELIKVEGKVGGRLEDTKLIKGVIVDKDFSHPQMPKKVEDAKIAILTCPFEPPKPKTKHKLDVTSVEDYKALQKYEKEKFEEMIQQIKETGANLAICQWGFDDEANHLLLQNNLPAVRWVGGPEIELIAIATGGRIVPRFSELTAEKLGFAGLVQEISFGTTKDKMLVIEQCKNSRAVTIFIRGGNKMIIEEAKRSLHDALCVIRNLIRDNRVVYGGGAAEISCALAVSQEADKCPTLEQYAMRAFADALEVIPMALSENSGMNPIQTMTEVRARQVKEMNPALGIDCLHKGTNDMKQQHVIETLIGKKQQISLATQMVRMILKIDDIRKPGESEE

[10] = target: T10, HeLa cell extract proteins (Homo sapiens, UniProt Q9UI30); conditions: HeLa; protein HSPC152
T10 construct: endogenous in cells; host or cells: HeLa cell extract
T10 sequence (Q9UI30 1-125): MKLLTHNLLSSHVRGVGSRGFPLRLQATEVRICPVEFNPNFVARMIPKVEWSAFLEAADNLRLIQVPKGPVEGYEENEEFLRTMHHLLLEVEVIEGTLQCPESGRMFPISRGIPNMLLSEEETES

[11] = target: T11, HeLa cell extract proteins (Homo sapiens, UniProt P62195); conditions: HeLa; protein PSMC5
T11 construct: endogenous in cells; host or cells: HeLa cell extract
T11 sequence (P62195 whole entry): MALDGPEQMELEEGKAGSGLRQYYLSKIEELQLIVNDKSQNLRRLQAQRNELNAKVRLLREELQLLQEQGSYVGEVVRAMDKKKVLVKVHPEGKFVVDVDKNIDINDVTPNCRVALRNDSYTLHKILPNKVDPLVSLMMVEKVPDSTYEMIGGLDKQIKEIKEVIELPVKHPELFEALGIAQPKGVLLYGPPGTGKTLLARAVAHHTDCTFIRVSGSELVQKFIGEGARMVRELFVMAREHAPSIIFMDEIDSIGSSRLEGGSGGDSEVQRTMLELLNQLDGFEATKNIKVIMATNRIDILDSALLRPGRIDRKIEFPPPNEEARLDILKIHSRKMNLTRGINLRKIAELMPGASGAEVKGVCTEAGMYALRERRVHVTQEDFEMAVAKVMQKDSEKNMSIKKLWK

[12] = target: T12, HeLa cell extract proteins (Homo sapiens, UniProt P61619); conditions: HeLa; protein SEC61A1
T12 construct: endogenous in cells; host or cells: HeLa cell extract
T12 sequence (P61619 whole entry): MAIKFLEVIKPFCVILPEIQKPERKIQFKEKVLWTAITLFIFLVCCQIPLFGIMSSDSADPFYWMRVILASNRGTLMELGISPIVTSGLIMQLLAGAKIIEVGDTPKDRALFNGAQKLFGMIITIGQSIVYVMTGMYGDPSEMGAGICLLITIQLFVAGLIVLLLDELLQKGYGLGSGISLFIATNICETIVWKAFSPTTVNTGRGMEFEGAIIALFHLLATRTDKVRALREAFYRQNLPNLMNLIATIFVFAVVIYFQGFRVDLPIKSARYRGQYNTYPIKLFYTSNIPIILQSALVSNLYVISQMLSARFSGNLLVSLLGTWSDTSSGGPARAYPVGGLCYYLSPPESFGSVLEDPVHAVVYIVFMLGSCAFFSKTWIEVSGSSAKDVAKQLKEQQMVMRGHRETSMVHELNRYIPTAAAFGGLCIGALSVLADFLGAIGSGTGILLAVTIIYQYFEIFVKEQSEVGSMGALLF

| Compound | fold changes relative to vehicle control [1] | fold changes relative to vehicle control [2] | fold changes relative to vehicle control [3] | fold changes relative to vehicle control [4] | fold changes relative to vehicle control [5] | fold changes relative to vehicle control [6] | fold changes relative to vehicle control [7] | fold changes relative to vehicle control [8] | fold changes relative to vehicle control [9] | fold changes relative to vehicle control [10] | fold changes relative to vehicle control [11] | fold changes relative to vehicle control [12] |
| --- | --- | --- | --- | --- | --- | --- | --- | --- | --- | --- | --- | --- |
| NCCOCCOCC(=O)Nc1nc2ncc(CNc3ccc(C(=O)NC(CCC(=O)O)C(=O)O)cc3)nc2c(=O)[nH]1 (stereo not drawn) [compound 6] | 1.03 | 1.51 | 0.94 | 0.92 | 1.16 | 1.33 | 1.02 | 1.41 | 1.29 | 1.36 | 1.12 | 1.03 |
| NCCCNc1ccc(C(=O)NC(CCC(=O)O)C(=O)O)cc1 (stereo not drawn) [compound 7] | 1.1 | 1.06 | 0.93 | 0.96 | 0.84 | 0.93 | 0.88 | 0.99 | 1.03 | 1.29 | 1.04 | 1.06 |
